According to patent EP0417790B1, “S-triazolo[3,4-i]purine derivatives” (Kyowa Hakko Kogyo Co., Ltd., priority 1989, dated 1991):
Where two headings read alike, the source gives them in different places.

How the values were obtained:
[1] = tested on: Male ddy mice; test: Electroconvulsive shock (ECS)-induced amnesia, step through passive avoidance; assay type: in vivo; conditions: mean ± S.E.M., control 70.9±13.5
Procedure: Male ddy mice (weighing 23 to 29 g) were used and each group consists of 14 to 15 animals. These tests were performed with a step through type passive avoidance apparatus. As experimental apparatus, two rooms (bright and dark) with automatic management system were used. An experimental apparatus is composed of a bright room equipped with 4W of fluorescent light (15 x 9 x 11 cm) and a dark room (15 x 14 x 18 cm), the two rooms are separated by a guillotine door of 3 x 3 cm. The floor of both rooms is stainless steal grid floor and the weak electric current can be send the grid floor of dark room. In the automatic management system, latency of acquisition trial and test trial are measured automatically by controlling with a controller (TK-402, by UNICOM, Japan).
The test compound was dissolved in saline and saline was used as a control. The test compound and the saline (control) were orally administered 60 minutes before the acquisition trial, respectively.
Acquisition trial for learning was performed as follows. […] As soon as the mouse entered the dark room, a scrambled foot-shock (0.18 mA) was delivered to the floor grid for 2 seconds. In the test trial, given 24 hours after the acquisition trial, the animal was again placed in the bright room and the response latency to enter the dark room was measured. The mice which required over 60 seconds to move from the bright room into the dark room were excluded from the test trial. Immediately after the acquisition trial, electric convulsive shock (ECS) (25 mA, 0.2 second, 2000 V) was loaded on mice. The test trial was performed 24 hours after the ECS treatment as follows. The mice received the acquisition trial were placed in the bright room and, latency from the door opening to the entrance of the whole body of animal into the dark room was measured. The maximum measurement time was 600 seconds and latency exceeding 600 seconds was recorded as 600 seconds.
Statistical significance between the control group and test compound treated group was judged by Man Whitney U-test.

[2] = tested on: mice; test: Scopolamine-induced amnesia, step through passive avoidance; assay type: in vivo; conditions: scopolamine 0.5 mg/kg i.p., mean ± S.E.M., controls 40.9±8.1 (Compound 41), 37.0±6.2 (Compound 51)
Procedure: Acquisition trial was performed in a manner similar to Experiment (f). Amnestic treatment was performed by intraperitoneal administration of scopolamine (0.5 mg/kg), 30 minutes prior to the acquisition trial. The test trial was performed 24 hours after the acquisition trial and its latency was determined as in Experiment (f).
Preparation of administrated test compound was performed in a manner similar to Experiment (f). Test compound and the saline were orally administered 60 minutes before the acquisition trial, respectively.

[3] = tested on: male dd-mice; test: Acute toxicity; assay type: in vivo; conditions: Minimum lethal dose, oral, mortality observed for seven days
Procedure: The compounds were orally administrated to male dd-mice weighing 20 ± 1 g. Minimum lethal dose (MLD) was determined by observing the mortality for seven days after the administration.

[4] = tested on: Hartley male guinea pigs; test: Experimental asthma (collapse time after antigen aerosol); assay type: in vivo; conditions: 1 hour before 1.5% EWA aerosol, n=3-10 mean±S.E.M., control 254 ± 18
Procedure: Guinea pigs were passively sensitized as follows. Hartley male guinea pigs weighing 350 to 500 g were intraperitoneally injected with 1 ml of rabbit anti-egg alubmin (EWA) serum prepared by the method of Koda et al. [Folia pharmacol., Japon, 66, 237 (1970)]. The animals were treated with intraperitoneal injection of diphenhydramine (20 mg/kg) and propranolol (5 mg/kg), 30 minutes before administration of test compounds. 17 hours after the sensitization, the test compounds (50 mg/kg or 5 mg/kg) or saline (control) were orally administrated to sensitized animals. After one hour from the administration of the test compounds, the guinea pigs were placed in plastic observation box and were exposed to an aerosal antigen of 1.5% EWA.
The time until the onset of respiratory distress-like symptom [collapse time (second)] was measured as a result of experimental asthma.

[5] = tested on: Wistar male rats; test: Diuretic activity; assay type: in vivo; conditions: Rattus norvegicus, po, 25 mg/kg orally, urine taken for 6 hours
Procedure: Wistar male rats weighing 150 to 300 g were used after fasting for 18 hours. […] The test was performed using 3 groups per test compound, and each group consists of 3 animals. The urine was metered by a measuring cylinder and electrolytes (Na^+ and K^+) in the urine were analyzed by flame photometer (model […]: Hitachi Ltd.). Parameters in Table 3 are represented by relative value for control.

[6] = tested on: trachea; test: Passive Schultz-Dale reaction (broncho-dilatory effect) on isolated tracheal strips; conditions: Cavia porcellus; 50% relaxation of antigen (EWA, 1 µg/ml)-contracted tracheal strips of passively sensitized guinea pigs
Procedure: Guinea pigs were passively sensitized as follows. Hartley male guinea pigs weighing 350 to 500 g were injected intraperitoneally with rabbit anti-egg albumin (EWA) serum prepared by the method of Koda et al. [Folia pharmacol., Japon 66, 237, (1970)]. After 24 hours, the guinea pigs were stunned and exsanguinated, and then trachea was excised. The zig-zag strips of the trachea were prepared by the method of Emmerson and Mackay [J. Pharm. Pharmacol., 31, 798, (1979)]. The strips were suspended in Krebs-Henseleit solution at 37°C under aeration of a mixed gas of 95% oxygen and 5% carbon dioxide, and incubated for one hour. Antigen (EWA) was then introduced in the solution (final concentration; 1 µg/ml), and the contraction was measured by isotonictransducer (TD-112s, made by Nihon Kohden K.K., Japan) and recorded on a recorder (Type 3066, made by Yokogawa-Hokushin Denki, K.K. Japan). After the contraction curves reached plateau the compounds were successively added in order to get cumulative concentration-relaxation curves. Concentration of 50% relaxation rate (IC50) was calculated from the regression line, which was obtained from cumulative concentration-relaxation curves.

[7] = tested on: male dd mice; test: Inhibition of platelet activating factor (PAF)-induced mortality; assay type: in vivo; conditions: Mus musculus, minimum effective dose, oral, 1 hour before 40 µg/kg PAF i.v., mortality 2 hours after PAF, read-out: PAF-induced mortality MED
Procedure: The experiment was performed by a minor modification of method of Carlson et al. [Agents and Actions, 21, 379 (1987)]. Groups each consisting of 10 male dd mice (weighing 28 to 32 g) were used, and 100 mg/kg of test compound or a saline (control) was orally administrated. One hour after the administration of test compound, 40 µg/kg of PAF (manufactured by Avanti Polar Lipids Co., Ltd.) was intravenously administered. Two hours after PAF injection, the mortality rate of the animals was observed. […]

[8] = 0.625 mg/kg orally 60 minutes before acquisition trial
[9] = 2.5 mg/kg orally 60 minutes before acquisition trial
[10] = 10 mg/kg orally 60 minutes before acquisition trial
[11] = 40 mg/kg orally 60 minutes before acquisition trial
[12] = relative value for control (1.00), read-out: Na^+/K^+
[13] = relative value for control (100), read-out: Excretion of K^+
[14] = relative value for control (100), read-out: Excretion of Na^+
[15] = relative value for control (100), read-out: Urine volume

Row | Compound | Latency of test trial [1, 8] [s] | Latency of test trial [1, 9] [s] | Latency of test trial [1, 10] [s] | Latency of test trial [1, 11] [s] | Latency of test trial [2, 8] [s] | Latency of test trial [2, 9] [s] | Latency of test trial [2, 10] [s] | Latency of test trial [2, 11] [s] | MLD [3] [mg/kg] | Experimental asthma Collapse time ([4]; 50 mg/kg orally) [s] | response vs control in vivo at 25 mg/kg [5, 12] [%] | response vs control in vivo at 25 mg/kg [5, 13] [%] | response vs control in vivo at 25 mg/kg [5, 14] [%] | response vs control in vivo at 25 mg/kg [5, 15] [%] | IC50 [6] [µM] | minimal effective dose [7] [mg/kg] | Experimental asthma Collapse time ([4]; 5 mg/kg orally) [s]
1 | CCCn1c(=O)n2c(=O)[nH]nc2c2c1ncn2C [Compound 41, 9-Methyl-6-n-propyl-2,5,6,9-tetrahydro-3H-1,2,4-triazolo[3,4-i]purin-3,5-dione] | 105.9 ± 44.0 | 111.3 ± 20.1 | 97.4 ± 38.7 | 171.8 ± 43.1 | 96.8 ± 21.5 | 115.8 ± 26.6 | 53.4 ± 8.9 | 74.3 ± 18.8 | >300 | – | – | – | – | – | – | – | –
2 | CCCCn1c(=O)n2c(-c3ccncc3)nnc2c2[nH]cnc21 [Compound 38, 6-n-Butyl-6,9-dihydro-3-(4-pyridyl)-5H-1,2,4-triazolo-[3,4-i]purin-5-one] | – | – | – | – | – | – | – | – | >300 | 401 ± 78 | 163 | 180 | 293 | 353 | > 40 | 25 | –
3 | CCCn1c(=O)n2c(C)nnc2c2[nH]cnc21 [Compound 25, 6,9-Dihydro-3-methyl-6-n-propyl-5H-1,2,4-triazolo[3,4-i]-purin-5-one] | – | – | – | – | – | – | – | – | 100 | 590 ± 9.8 | 163 | 119 | 193 | 161 | 0.42 | 100 | –
4 | CCCn1c(=O)n2c(-c3ccncc3)nnc2c2[nH]cnc21 [Compound 31, 6,9-Dihydro-6-n-propyl-3-(4-pyridyl)-5H-1,2,4-triazolo[3,4-i]purin-5-one] | – | – | – | – | – | – | – | – | >300 | 512 ± 52 | 166 | 118 | 196 | 191 | 11 | 25 | –
5 | Cn1c(=O)c2[nH]cnc2n(C)c1=O [Theophylline, reference compound] | – | – | – | – | – | – | – | – | – | 414 ± 47 | – | – | – | – | 23 | 100 | –
6 | CCCn1c(=O)n2c(-c3ccc(Cl)cc3)nnc2c2c1ncn2C [Compound 12, 3-(4-Chlorophenyl)-6,9-dihydro-9-methyl-6-n-propyl-5H-1,2,4-triazolo[3,4-i]purin-5-one] | – | – | – | – | – | – | – | – | >300 | – | 142 | 129 | 183 | 198 | 26 | 100 | 399 ± 55
